Results published in paper PMC12028158, “Synthesis and In Vitro Evaluation of the Anticancer Effect of Novel Phosphonium Vindoline Derivatives” (International Journal of Molecular Sciences, 2025).
Like-named read-outs stand apart in the source and are kept apart here.

What was measured:
Assay type in all cases: cell-based
HL-60(TB) = assay: NCI60 five-dose screen; settings: Homo sapiens
K-562 = assay: NCI60 five-dose screen; settings: Homo sapiens, K562
EKVX = assay: NCI60 five-dose screen; settings: Homo sapiens
NCI-H226 = assay: NCI60 five-dose screen; settings: Homo sapiens
HCT-116 = assay: NCI60 five-dose screen; settings: Homo sapiens
HCT-15 [1] = assay: NCI60 five-dose screen; settings: Homo sapiens
SF-268 = assay: NCI60 five-dose screen; settings: Homo sapiens
M14 = assay: NCI60 five-dose screen; settings: Homo sapiens
MDA-MB-435 = assay: NCI60 five-dose screen; settings: Homo sapiens
SK-MEL-28 = assay: NCI60 five-dose screen; settings: Homo sapiens
SK-MEL-5 [2] = assay: NCI60 five-dose screen; settings: Homo sapiens
UACC-62 [3] = assay: NCI60 five-dose screen; settings: Homo sapiens
IGROV1 [4] = assay: NCI60 five-dose screen; settings: Homo sapiens, IGROV-1
OVCAR-4 = assay: NCI60 five-dose screen; settings: Homo sapiens
NCI/ADR-RES [5] = assay: NCI60 five-dose screen; settings: Homo sapiens
786-0 [6] = assay: NCI60 five-dose screen; settings: Homo sapiens
A498 [7] = assay: NCI60 five-dose screen; settings: Homo sapiens
CAKI-1 = assay: NCI60 five-dose screen; settings: Homo sapiens
RXF 393 = assay: NCI60 five-dose screen; settings: Homo sapiens
SN12C [8] = assay: NCI60 five-dose screen; settings: Homo sapiens
DU-145 = assay: NCI60 five-dose screen; settings: Homo sapiens
HS 578T = assay: NCI60 five-dose screen; settings: Homo sapiens
BT-549 [9] = assay: NCI60 five-dose screen; settings: Homo sapiens
Leukemia panel = assay: NCI60 five-dose screen, panel mean; settings: Homo sapiens, read-out: Mean GI50
CNS Cancer panel = assay: NCI60 five-dose screen, panel mean; settings: Homo sapiens, read-out: Mean GI50
Breast Cancer panel = assay: NCI60 five-dose screen, panel mean; settings: Homo sapiens, read-out: Mean GI50
MOLT-4 = assay: NCI60 one-dose screen; settings: Homo sapiens
SR = assay: NCI60 one-dose screen; settings: Homo sapiens, read-out: Growth percent
HOP-92 = assay: NCI60 one-dose screen; settings: Homo sapiens
NCI-H23 = assay: NCI60 one-dose screen; settings: Homo sapiens
NCI-H322M = assay: NCI60 one-dose screen; settings: Homo sapiens, read-out: Growth percent
NCI-H460 = assay: NCI60 one-dose screen; settings: Homo sapiens
HCT-15 [10] = assay: NCI60 one-dose screen; settings: Homo sapiens
KM12 = assay: NCI60 one-dose screen; settings: Homo sapiens
SF-539 = assay: NCI60 one-dose screen; settings: Homo sapiens
MALME-3M = assay: NCI60 one-dose screen; settings: Homo sapiens, read-out: Growth percent
SK-MEL-5 [11] = assay: NCI60 one-dose screen; settings: Homo sapiens
UACC-62 [12] = assay: NCI60 one-dose screen; settings: Homo sapiens
IGROV1 [13] = assay: NCI60 one-dose screen; settings: Homo sapiens
OVCAR-8 = assay: NCI60 one-dose screen; settings: Homo sapiens
NCI/ADR-RES [14] = assay: NCI60 one-dose screen; settings: Homo sapiens, read-out: Growth percent
786-0 [15] = assay: NCI60 one-dose screen; settings: Homo sapiens
A498 [16] = assay: NCI60 one-dose screen; settings: Homo sapiens
SN12C [17] = assay: NCI60 one-dose screen; settings: Homo sapiens, read-out: Growth percent
MDA-MB-231/ATCC = assay: NCI60 one-dose screen; settings: Homo sapiens
BT-549 [18] = assay: NCI60 one-dose screen; settings: Homo sapiens
[19] = tested on: 60 human tumor cell lines (NCI60); assay: NCI60 one-dose screen, overall mean; settings: Homo sapiens, read-out: Mean growth percent

Compound `CC[C@]12C=CCN3CC[C@@]4(c5ccc(OC)cc5N(C)[C@H]4[C@@](O)(C(=O)OC)[C@@H]1OC(=O)CCC[P+](c1ccccc1)(c1ccccc1)c1ccccc1)[C@@H]32` [compound 3, reference compound] has a GI50 (HL-60(TB); HL-60, HL-60(TB), Leukemia, five-dose, read-out: GI50) of 124 nM, a GI50 (K-562; K-562, Leukemia, five-dose, read-out: GI50) of 360 nM and a GI50 (EKVX; Non-small Cell Lung Cancer, five-dose, read-out: GI50) of 470 nM. It also gave a GI50 (NCI-H226; NCI-H226, Non-small Cell Lung Cancer, five-dose, read-out: GI50) of 2040 nM, a GI50 (HCT-116; HCT-116, Colon Cancer, five-dose, read-out: GI50) of 965 nM and a GI50 (HCT-15 [1]; HCT-15, Colon Cancer, five-dose, read-out: GI50) of 8500 nM. For the same compound, the GI50 (SF-268; SF-268, CNS Cancer, five-dose, read-out: GI50) was 975 nM, the GI50 (M14; M14, Melanoma, five-dose, read-out: GI50) was 790 nM and the GI50 (MDA-MB-435; MDA-MB-435, Melanoma, five-dose, read-out: GI50) was 278 nM. For the same compound, the GI50 (SK-MEL-28; SK-MEL-28, Melanoma, five-dose, read-out: GI50) was 261 nM, the GI50 (SK-MEL-5 [2]; SK-MEL-5, Melanoma, five-dose, read-out: GI50) was 766 nM and the GI50 (UACC-62 [3]; UACC-62, Melanoma, five-dose, read-out: GI50) was 222 nM. It also gave a GI50 (IGROV1 [4]; IGROV1, Ovarian Cancer, five-dose, read-out: GI50) of 237 nM, a GI50 (OVCAR-4; OVCAR-4, Ovarian Cancer, five-dose, read-out: GI50) of 469 nM and a GI50 (NCI/ADR-RES [5]; Ovarian Cancer, five-dose, read-out: GI50) of over 50000 nM. For the same compound, the GI50 (786-0 [6]; 786-0, Renal Cancer, five-dose, read-out: GI50) was 2740 nM, the GI50 (A498 [7]; A498, Renal Cancer, five-dose, read-out: GI50) was 1710 nM and the GI50 (CAKI-1; CAKI-1, Renal Cancer, five-dose, read-out: GI50) was 5570 nM. The GI50 (RXF 393; RXF 393, Renal Cancer, five-dose, read-out: GI50) was 705 nM, the GI50 (SN12C [8]; Renal Cancer, five-dose, read-out: GI50) was 590 nM and the GI50 (DU-145; DU-145, Prostate Cancer, five-dose, read-out: GI50) was 1070 nM. For the same compound, the GI50 (HS 578T; HS 578T, Breast Cancer, five-dose, read-out: GI50) was 1260 nM, the GI50 (BT-549 [9]; BT-549, Breast Cancer, five-dose, read-out: GI50) was 380 nM and the GI50 (Leukemia panel; mean over Leukemia panel) was 360 nM. It also gave a GI50 (CNS Cancer panel; mean over CNS Cancer panel) of 760 nM, a GI50 (Breast Cancer panel; mean over Breast Cancer panel) of 450 nM and an activity at 10 µM (MOLT-4; MOLT-4, 10 μM, one-dose, read-out: Growth percent) of 5.41%. The activity at 10 µM (SR; 10 μM, one-dose) was 9.57%, the activity at 10 µM (HOP-92; HOP-92, 10 μM, one-dose, read-out: Growth percent) was -40% and the activity at 10 µM (NCI-H23; NCI-H23, 10 μM, one-dose, read-out: Growth percent) was -8.66%. The activity at 10 µM (NCI-H322M; 10 μM, one-dose) was 35.6%, the activity at 10 µM (NCI-H460; NCI-H460, 10 μM, one-dose, read-out: Growth percent) was 6.11% and the activity at 10 µM (HCT-15 [10]; HCT-15, 10 μM, one-dose, read-out: Growth percent) was 101%. It also gave an activity at 10 µM (KM12; KM12, 10 μM, one-dose, read-out: Growth percent) of -27.2%, an activity at 10 µM (SF-539; SF-539, 10 μM, one-dose, read-out: Growth percent) of 16.2% and an activity at 10 µM (MALME-3M; MALME-3M, 10 μM, one-dose) of -12.4%. For the same compound, the activity at 10 µM (SK-MEL-5 [11]; SK-MEL-5, 10 μM, one-dose, read-out: Growth percent) was -91.5%, the activity at 10 µM (UACC-62 [12]; UACC-62, 10 μM, one-dose, read-out: Growth percent) was -59.3% and the activity at 10 µM (IGROV1 [13]; IGROV-1, IGROV1, 10 μM, one-dose, read-out: Growth percent) was -0.06%. The activity at 10 µM (OVCAR-8; OVCAR-8, 10 μM, one-dose, read-out: Growth percent) was 3.13%, the activity at 10 µM (NCI/ADR-RES [14]; 10 μM, one-dose) was 100% and the activity at 10 µM (786-0 [15]; 786-0, 10 μM, one-dose, read-out: Growth percent) was 20.6%. It also gave an activity at 10 µM (A498 [16]; A498, 10 μM, one-dose, read-out: Growth percent) of 124%, an activity at 10 µM (SN12C [17]; 10 μM, one-dose) of 2.73% and an activity at 10 µM (MDA-MB-231/ATCC; MDA-MB-231/ATCC, 10 μM, one-dose, read-out: Growth percent) of 1.29%. For the same compound, the activity at 10 µM (BT-549 [18]; BT-549, 10 μM, one-dose, read-out: Growth percent) was 11% and the activity at 10 µM ([19]; mean over 60 cell lines, 10 μM, one-dose) was 3.13%.
With `CC[C@]12C=CCN3CC[C@@]4(c5ccc(OC)cc5N(C)[C@H]4[C@@](O)(C(=O)OC)[C@@H]1OC(=O)CCC[P+](C1CCCCC1)(C1CCCCC1)C1CCCCC1)[C@@H]32` [9d] the GI50 (HL-60(TB); HL-60) was 322 nM, the GI50 (K-562) was 1320 nM and the GI50 (EKVX) was 3090 nM. For the same compound, the GI50 (NCI-H226; NCI-H226) was 4060 nM, the GI50 (HCT-116; HCT-116) was 2850 nM and the GI50 (HCT-15 [1]; HCT-15) was 15300 nM. For the same compound, the GI50 (SF-268; SF-268) was 3230 nM, the GI50 (M14; M14) was 1920 nM and the GI50 (MDA-MB-435; MDA-MB-435) was 1830 nM. It also gave a GI50 (SK-MEL-28; SK-MEL-28) of 1080 nM, a GI50 (SK-MEL-5 [2]; SK-MEL-5) of 1760 nM and a GI50 (UACC-62 [3]; UACC-62) of 1410 nM. For the same compound, the GI50 (IGROV1 [4]) was 1390 nM, the GI50 (OVCAR-4; OVCAR-4) was 2390 nM and the GI50 (NCI/ADR-RES [5]) was 35600 nM. For the same compound, the GI50 (786-0 [6]; 786-0) was 4450 nM, the GI50 (A498 [7]; A498) was 12400 nM and the GI50 (CAKI-1; CAKI-1) was 16400 nM. The GI50 (RXF 393; RXF 393) was 1470 nM, the GI50 (SN12C [8]) was 2890 nM and the GI50 (DU-145; DU-145) was 3750 nM. The GI50 (HS 578T; Hs-578T) was 2450 nM, the GI50 (BT-549 [9]; BT-549) was 2440 nM and the GI50 (Leukemia panel) was 1200 nM. It also gave a GI50 (CNS Cancer panel) of 2710 nM, a GI50 (Breast Cancer panel) of 1540 nM and an activity at 10 µM (MOLT-4; MOLT-4, read-out: Growth percent) of 2.35%. The activity at 10 µM (SR) was 29.1%, the activity at 10 µM (HOP-92; HOP-92, read-out: Growth percent) was -43.8% and the activity at 10 µM (NCI-H23; NCI-H23, read-out: Growth percent) was -4.73%. For the same compound, the activity at 10 µM (NCI-H322M) was 24.5%, the activity at 10 µM (NCI-H460; NCI-H460, read-out: Growth percent) was 4.64% and the activity at 10 µM (HCT-15 [10]; HCT-15, read-out: Growth percent) was 76.6%. The activity at 10 µM (KM12; KM12, read-out: Growth percent) was -63.4%, the activity at 10 µM (SF-539; SF-539, read-out: Growth percent) was -86.5% and the activity at 10 µM (MALME-3M; Malme-3M) was -96.1%. For the same compound, the activity at 10 µM (SK-MEL-5 [11]; SK-MEL-5, read-out: Growth percent) was -98.4%, the activity at 10 µM (UACC-62 [12]; UACC-62, read-out: Growth percent) was -97.3% and the activity at 10 µM (IGROV1 [13]; IGROV-1, read-out: Growth percent) was -86%. For the same compound, the activity at 10 µM (OVCAR-8; OVCAR-8, read-out: Growth percent) was 1.19%, the activity at 10 µM (NCI/ADR-RES [14]) was 100% and the activity at 10 µM (786-0 [15]; 786-0, read-out: Growth percent) was -16.2%. The activity at 10 µM (A498 [16]; A498, read-out: Growth percent) was 21.8%, the activity at 10 µM (SN12C [17]) was -40.5% and the activity at 10 µM (MDA-MB-231/ATCC; MDA-MB-231, read-out: Growth percent) was -90.8%. It also gave an activity at 10 µM (BT-549 [18]; BT-549, read-out: Growth percent) of -97.4% and an activity at 10 µM ([19]; 60 cell) of -32.7%.
